PubChem BioAssay AID200 (DTP/NCI, 2004)
Values joined by “and” are separate entries in the source; they are usually repeats but may differ in a detail not shown here. Equal entries are not always repeated. Toxic doses and inconclusive results are not listed. Where a SMILES comes first, the peptide text is derived from it. [ ]: non-standard residue; d: D form. The star is where a group is joined. Cbz = O=C(OCc1ccccc1)*; Nva = CCC[CH](N)C(=O)O

System: B6C3F1 mice, B16 melanoma ip, median survival T/C
Assay: NCI In Vivo Anticancer Drug Screen. Data for tumor model B16 Melanoma (intraperitoneal) in B6C3F1 mice
Conditions: endpoint: median survival time, higher = longer survival
Method in brief: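 Values are T/C ratios: the measurement in treated animals divided by that in vehicle-treated controls, using survival or tumor size in mice carrying transplantable tumors.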

[1] = dose: 1.0 mg/kg/injection, schedule: Q01DX009 (ip), vehicle: saline
[2] = dose: 2.0 mg/kg/injection, schedule: Q01DX009 (ip), vehicle: saline
[3] = dose: 4.0 mg/kg/injection, schedule: Q01DX009 (ip), vehicle: saline
[4] = dose: 8.0 mg/kg/injection, schedule: Q01DX009 (ip), vehicle: saline
[5] = dose: 16.0 mg/kg/injection, schedule: Q01DX009 (ip), vehicle: saline
[6] = dose: 50.0 mg/kg/injection, schedule: Q01DX009 (ip), vehicle: Klucel (hydroxypropylcellulose) (HPC)
[7] = dose: 200.0 mg/kg/injection, schedule: Q01DX009 (ip), vehicle: Klucel (hydroxypropylcellulose) (HPC)

CC(C)[NH-].CC(C)[NH-].[Cl][Pt+2][Cl] was tested, and the T/C (dose: 1.56 mg/kg/injection, schedule: Q01DX009 (ip), vehicle: other) was 122 % of control and the T/C (dose: 3.12 mg/kg/injection, schedule: Q01DX009 (ip), vehicle: other) was 120 % of control.
With OC1CSC1 the T/C (dose: 50.0 mg/kg/injection, schedule: Q01DX009 (ip), vehicle: saline + alcohol) was 109 % of control, the T/C (dose: 100.0 mg/kg/injection, schedule: Q01DX009 (ip), vehicle: saline + alcohol) was 107 % of control and the T/C (dose: 200.0 mg/kg/injection, schedule: Q01DX009 (ip), vehicle: saline + alcohol) was 113 % of control. For the same compound, the T/C (dose: 400.0 mg/kg/injection, schedule: Q01DX009 (ip), vehicle: saline + alcohol) was 112 % of control.
In the case of CC(C)=CC(=O)OC1C2C(C)=CC(=O)C(O)C2(C)C2C3(O)OCC24C(CC(=O)OC14)C(C)C3O (configuration not stated), the T/C (dose: 0.25 mg/kg/injection, schedule: Q01DX009 (ip), vehicle: distilled water + Tween-80) is reported as 163 % of control and 168 % of control and the T/C (dose: 0.5 mg/kg/injection, schedule: Q01DX009 (ip), vehicle: distilled water + Tween-80) is reported as 150 % of control and 160 % of control and 168 % of control.
With CC(=O)O[C@H]1C(=O)[C@@]2(C)C(C(OC(=O)c3ccccc3)[C@]3(O)C[C@H](OC(=O)C(OC(=O)CCCC(=O)NCCCN(C)C)C(NC(=O)c4ccccc4)c4ccccc4)C(C)=C1C3(C)C)C1(OC(C)=O)COC1C[C@@H]2O (some centres not stated) the T/C (dose: 10.0 mg/kg/injection, schedule: Q01DX009 (ip), vehicle: water) was 191 % of control, the T/C (dose: 20.0 mg/kg/injection, schedule: Q01DX009 (ip), vehicle: water) was 229 % of control and the T/C (dose: 40.0 mg/kg/injection, schedule: Q01DX009 (ip), vehicle: water) was 289 % of control.
For C1CN1P1(N2CC2)=NP(N2CC2)(N2CC2)=NP(N2CC2)(N2CC2)=NP(N2CC2)(N2CC2)=N1, the T/C [1] was 95 % of control and 98 % of control, the T/C (dose: 1.0 mg/kg/injection, schedule: Q02DX009 (ip), vehicle: saline) was 91 % of control and 97 % of control and the T/C [2] was 92 % of control and 96 % of control. For the same compound, the T/C (dose: 2.0 mg/kg/injection, schedule: Q02DX009 (ip), vehicle: saline) was 91 % of control and 97 % of control, the T/C [3] was 109 % of control and 95 % of control and the T/C (dose: 4.0 mg/kg/injection, schedule: Q02DX009 (ip), vehicle: saline) was 91 % of control and 98 % of control. For the same compound, the T/C [4] was 89 % of control and 107 % of control, the T/C (dose: 8.0 mg/kg/injection, schedule: Q02DX009 (ip), vehicle: saline) was 90 % of control and 97 % of control and the T/C [5] was 91 % of control and 100 % of control. For the same compound, the T/C (dose: 16.0 mg/kg/injection, schedule: Q02DX009 (ip), vehicle: saline) was 112 % of control, the T/C (dose: 32.0 mg/kg/injection, schedule: Q01DX009 (ip), vehicle: saline) was 109 % of control and 91 % of control and the T/C (dose: 32.0 mg/kg/injection, schedule: Q02DX009 (ip), vehicle: saline) was 88 % of control and 103 % of control. The T/C (dose: 64.0 mg/kg/injection, schedule: Q01DX009 (ip), vehicle: saline) was 109 % of control and 90 % of control and the T/C (dose: 64.0 mg/kg/injection, schedule: Q02DX009 (ip), vehicle: saline) was 94 % of control and 100 % of control.
With C=COC(=O)N(C)C the T/C (dose: 100.0 mg/kg/injection, schedule: Q01DX009 (ip), vehicle: saline with Tween-80) was 99 % of control and the T/C (dose: 200.0 mg/kg/injection, schedule: Q01DX009 (ip), vehicle: saline with Tween-80) was 97 % of control.
O=C(O)C1CCCN1C(=O)OCc1ccccc1 (configuration not stated) was tested, and the T/C [6] was 97 % of control and the T/C [7] was 89 % of control.
With CN(C)c1cccc(F)c1C(=O)NC(=O)Nc1ccc(Cl)cc1 the T/C (dose: 37.5 mg/kg/injection, schedule: Q01DX009 (ip), vehicle: saline with Tween-80) was 97 % of control, the T/C (dose: 75.0 mg/kg/injection, schedule: Q01DX009 (ip), vehicle: saline with Tween-80) was 111 % of control and the T/C (dose: 150.0 mg/kg/injection, schedule: Q01DX009 (ip), vehicle: saline with Tween-80) was 101 % of control.
In the case of CCCC(NC(=O)OCc1ccccc1)C(=O)NC(C(=O)O)C(C)C (configuration not stated) (Cbz-[Nva]-Val-OH; configuration not given here), the T/C (dose: 100.0 mg/kg/injection, schedule: Q01DX009 (ip), vehicle: Klucel (hydroxypropylcellulose) (HPC)) is reported as 102 % of control, the T/C [7] is reported as 109 % of control and the T/C (dose: 400.0 mg/kg/injection, schedule: Q01DX009 (ip), vehicle: Klucel (hydroxypropylcellulose) (HPC)) is reported as 99 % of control.
In the case of CCN(CC)CC(=O)O[C@]1(CC)C(=O)OCc2c1cc1n(c2=O)Cc2cc3ccccc3nc2-1, the T/C (dose: 1.0 mg/kg/injection, schedule: Q01DX009 (ip), vehicle: water) is reported as 108 % of control, the T/C (dose: 2.0 mg/kg/injection, schedule: Q01DX009 (ip), vehicle: water) is reported as 121 % of control and the T/C (dose: 4.8 mg/kg/injection, schedule: Q01DX009 (ip), vehicle: water) is reported as 152 % of control. The T/C (dose: 8.0 mg/kg/injection, schedule: Q01DX009 (ip), vehicle: water) was 166 % of control.
For N#C[Se-].c1ccc([Te+](c2ccccc2)c2ccccc2)cc1, the T/C (dose: 1.56 mg/kg/injection, schedule: Q01DX009 (ip), vehicle: Klucel (hydroxypropylcellulose) (HPC)) was 92 % of control, the T/C (dose: 3.12 mg/kg/injection, schedule: Q01DX009 (ip), vehicle: Klucel (hydroxypropylcellulose) (HPC)) was 97 % of control and the T/C (dose: 6.25 mg/kg/injection, schedule: Q01DX009 (ip), vehicle: Klucel (hydroxypropylcellulose) (HPC)) was 96 % of control. For the same compound, the T/C (dose: 12.5 mg/kg/injection, schedule: Q01DX009 (ip), vehicle: Klucel (hydroxypropylcellulose) (HPC)) was 96 % of control.
For O=NN(CCCl)C(=O)NC1CCC(=O)NC1=O (configuration not stated), the T/C (dose: 0.8 mg/kg/injection, schedule: Q01DX005 (ip), vehicle: saline + alcohol) was 118 % of control, the T/C (dose: 0.8 mg/kg/injection, schedule: Q01DX005 (iv), vehicle: saline + alcohol) was 96 % of control and the T/C (dose: 1.6 mg/kg/injection, schedule: Q01DX005 (ip), vehicle: saline + alcohol) was 155 % of control. For the same compound, the T/C (dose: 2.0 mg/kg/injection, schedule: Q01DX005 (ip), vehicle: saline + alcohol) was 175 % of control, the T/C (dose: 2.0 mg/kg/injection, schedule: Q01DX005 (iv), vehicle: saline + alcohol) was 102 % of control and the T/C (dose: 3.2 mg/kg/injection, schedule: Q01DX005 (ip), vehicle: saline + alcohol) was 197 % of control. The T/C (dose: 3.2 mg/kg/injection, schedule: Q01DX005 (iv), vehicle: saline + alcohol) was 151 % of control, the T/C (dose: 4.0 mg/kg/injection, schedule: Q01DX001 (ip), vehicle: saline + alcohol) was 195 % of control and the T/C (dose: 4.0 mg/kg/injection, schedule: Q01DX001 (iv), vehicle: saline + alcohol) was 124 % of control. For the same compound, the T/C (dose: 4.0 mg/kg/injection, schedule: Q01DX005 (ip), vehicle: saline + alcohol) was 300 % of control, the T/C (dose: 4.0 mg/kg/injection, schedule: Q01DX005 (iv), vehicle: saline + alcohol) was 180 % of control and the T/C (dose: 6.4 mg/kg/injection, schedule: Q01DX005 (ip), vehicle: saline + alcohol) was 275 % of control. For the same compound, the T/C (dose: 8.0 mg/kg/injection, schedule: Q01DX001 (ip), vehicle: saline + alcohol) was 200 % of control and 291 % of control, the T/C (dose: 8.0 mg/kg/injection, schedule: Q01DX001 (iv), vehicle: saline + alcohol) was 162 % of control and the T/C (dose: 8.0 mg/kg/injection, schedule: Q01DX005 (ip), vehicle: saline + alcohol) was 105 % of control. The T/C (dose: 8.0 mg/kg/injection, schedule: Q01DX005 (iv), vehicle: saline + alcohol) was 150 % of control, the T/C (dose: 8.0 mg/kg/injection, schedule: Q01DX005 (oral), vehicle: saline + alcohol) was 210 % of control and the T/C (dose: 16.0 mg/kg/injection, schedule: Q01DX001 (ip), vehicle: saline + alcohol) was 255 % of control and 317 % of control. The T/C (dose: 16.0 mg/kg/injection, schedule: Q01DX001 (iv), vehicle: saline + alcohol) was 194 % of control and 216 % of control, the T/C (dose: 16.0 mg/kg/injection, schedule: Q01DX001 (oral), vehicle: saline + alcohol) was 183 % of control and the T/C (dose: 32.0 mg/kg/injection, schedule: Q01DX001 (oral), vehicle: saline + alcohol) was 89 % of control.
For COc1cccc2c1C(=O)c1c(O)c3c(c(O)c1C2=O)C[C@@](O)(/C(CO)=N/NC(=O)c1ccc(Cl)c(Cl)c1)C[C@@H]3OC1CC(N)C(O)C(C)O1 (some centres not stated), the T/C [1] was 188 % of control, the T/C [2] was 190 % of control and the T/C [3] was 250 % of control. The T/C [4] was 267 % of control and the T/C [5] was 357 % of control.
[N-]=[N+]=CC(=O)CCC(NC(=O)OCc1ccccc1)C(=O)OCc1ccccc1 (configuration not stated) was tested, and the T/C (dose: 25.0 mg/kg/injection, schedule: Q01DX009 (ip), vehicle: Klucel (hydroxypropylcellulose) (HPC)) was 93 % of control and the T/C [6] was 96 % of control.
In the case of Nc1n[nH]c2ccccc12, the T/C (dose: 25.0 mg/kg/injection, schedule: Q01DX009 (ip), vehicle: acid diluted with saline) is reported as 101 % of control, the T/C (dose: 50.0 mg/kg/injection, schedule: Q01DX009 (ip), vehicle: acid diluted with saline) is reported as 102 % of control and the T/C (dose: 100.0 mg/kg/injection, schedule: Q01DX009 (ip), vehicle: acid diluted with saline) is reported as 95 % of control. For the same compound, the T/C (dose: 200.0 mg/kg/injection, schedule: Q01DX009 (ip), vehicle: acid diluted with saline) was 88 % of control.
For CC1=C(CC/C(C)=C/CCC2=CCC(C3=CC(=O)OC3O)OC2O)C(C)(C)CCC1 (configuration not stated), the T/C (dose: 3.0 mg/kg/injection, schedule: Q01DX009 (ip), vehicle: Klucel (hydroxypropylcellulose) (HPC)) was 90 % of control and the T/C (dose: 6.0 mg/kg/injection, schedule: Q01DX009 (ip), vehicle: Klucel (hydroxypropylcellulose) (HPC)) was 90 % of control.
